From patent publication US4981856A, “Anti-tumor agents” (Imperial Chemical Industries PLC, priority 1987, dated 1991)
pIC50: −log10 of the molar value.

Key:
[1] = target: thymidylate synthetase (Mus musculus, UniProt P07607); test: inhibitory effect on the enzyme thymidylate synthetase in vitro; type: biochemical; details: in vitro enzyme inhibition; read-out: IC50 against thymidylate synthetase
Source text: (§1) Compounds of this type are believed to act as anti-tumour agents by inhibiting the enzyme thymidylate synthetase. Their anti-tumour activity may be assessed in vitro by determining their inhibitory effect on that enzyme, and in cell cultures by their inhibitory effect on the cell line L1210.
(§2) As also stated above a quinazoline of the invention is believed to act as an anti-tumour agent by inhibiting the enzyme thymidylate synthetase. This anti-tumour activity may be assessed in vitro by determining the inhibitory effect on that enzyme and is cell cultures by the inhibitory effect on the mouse leukaemia cell line L1210 (UK Patent Specification No. 2065653B).

[2] = tested on: L1210 cell line; test: inhibitory effect on the mouse leukaemia cell line L1210 in cell culture; type: cell-based; details: read-out: IC50 against the L1210 cell line
Source text: as §1, §2

[3] = tested on: humans; details: particularly in relation to the liver and kidney; cited from earlier work

Chain of thymidylate synthetase (P07607 whole entry): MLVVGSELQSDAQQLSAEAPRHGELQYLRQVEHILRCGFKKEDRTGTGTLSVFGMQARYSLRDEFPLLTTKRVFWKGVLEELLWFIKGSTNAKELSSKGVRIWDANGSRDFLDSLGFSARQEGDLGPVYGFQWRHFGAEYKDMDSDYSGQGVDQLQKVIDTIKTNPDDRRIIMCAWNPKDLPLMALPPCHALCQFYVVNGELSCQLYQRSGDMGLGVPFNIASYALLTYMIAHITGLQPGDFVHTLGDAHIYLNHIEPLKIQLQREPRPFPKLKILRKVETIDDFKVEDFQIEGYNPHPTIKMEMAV

| Structure (SMILES) | pIC50 [1] | pIC50 [2] | symptoms of toxicity in humans [3] |
| --- | --- | --- | --- |
| C#CCN(Cc1cc2c(=O)[nH]c(C)nc2cc1C)c1ccc(C(=O)N[C@@H](CCC(=O)O)C(=O)O)cc1 [N-[p-[N-(3,4-dihydro-2,7-dimethyl-4-oxoquinazolin-6-ylmethyl)-N-(prop-2-ynyl)amino]benzoyl]-L-glutamic acid] | 7.52 | 6.74 |  |
| C#CCN(Cc1ccc2nc(N)[nH]c(=O)c2c1)c1ccc(C(=O)N[C@@H](CCC(=O)O)C(=O)O)cc1 [CB3717] |  |  | shows symptoms of toxicity in humans, particularly in relation to the liver and kidney |
